What was measured:
[1] = target: T1, Peroxisome proliferator-activated receptor delta (Homo sapiens, UniProt Q03181); assay: Inhibition of GAL4-fused human PPARdelta transcriptional activity expressed in CHOK1 cells after 2 days by luciferase reporter gene assay; format: cell-based
T1 sequence (Q03181 whole entry): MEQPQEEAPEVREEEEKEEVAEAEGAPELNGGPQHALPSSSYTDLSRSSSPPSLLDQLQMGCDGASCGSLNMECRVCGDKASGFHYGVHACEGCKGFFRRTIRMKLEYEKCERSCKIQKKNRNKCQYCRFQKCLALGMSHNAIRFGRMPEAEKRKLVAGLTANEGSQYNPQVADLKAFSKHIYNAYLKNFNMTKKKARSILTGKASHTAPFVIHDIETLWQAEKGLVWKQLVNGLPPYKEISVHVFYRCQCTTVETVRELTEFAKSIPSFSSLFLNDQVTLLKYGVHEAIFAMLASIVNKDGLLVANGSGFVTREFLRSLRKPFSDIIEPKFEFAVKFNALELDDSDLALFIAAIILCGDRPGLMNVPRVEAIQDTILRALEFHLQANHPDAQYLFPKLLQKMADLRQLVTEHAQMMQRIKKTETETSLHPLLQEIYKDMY

[2] = Lipophilicity, log D of the compound; format: physicochemical; conditions: octanol/water
[3] = target: T2, Nuclear receptor ROR-alpha (Homo sapiens, UniProt P35398); assay: Inhibition of GAL4-fused human RORalpha transcriptional activity expressed in CHOK1 cells after 2 days by luciferase reporter gene assay; format: cell-based
T2 sequence (P35398 whole entry): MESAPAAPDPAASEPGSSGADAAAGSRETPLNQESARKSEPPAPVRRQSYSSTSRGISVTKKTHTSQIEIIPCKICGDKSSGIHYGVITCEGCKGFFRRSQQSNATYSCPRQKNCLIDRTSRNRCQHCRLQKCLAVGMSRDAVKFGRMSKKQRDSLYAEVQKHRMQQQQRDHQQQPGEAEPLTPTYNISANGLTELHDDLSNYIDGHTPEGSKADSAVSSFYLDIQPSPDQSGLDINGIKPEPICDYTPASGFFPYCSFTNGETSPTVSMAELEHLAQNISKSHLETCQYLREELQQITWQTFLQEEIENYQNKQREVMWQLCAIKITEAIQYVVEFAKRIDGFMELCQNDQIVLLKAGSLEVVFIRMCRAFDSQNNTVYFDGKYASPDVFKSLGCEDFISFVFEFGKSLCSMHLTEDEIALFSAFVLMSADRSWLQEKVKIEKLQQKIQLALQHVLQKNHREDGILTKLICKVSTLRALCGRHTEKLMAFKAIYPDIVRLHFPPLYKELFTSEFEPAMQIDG

[4] = Terminal half life in CD(SD) rat at 1 mg/kg, iv; format: ADME, organism-based; conditions: in vivo, read-out: beta t1/2 (converted)
[5] = target: Cytochrome P450 2C19 (Homo sapiens, UniProt P33261); assay: Time-dependent inhibition of human CYP2C19; format: ADME
Cytochrome P450 2C19, sequence (P33261 whole entry): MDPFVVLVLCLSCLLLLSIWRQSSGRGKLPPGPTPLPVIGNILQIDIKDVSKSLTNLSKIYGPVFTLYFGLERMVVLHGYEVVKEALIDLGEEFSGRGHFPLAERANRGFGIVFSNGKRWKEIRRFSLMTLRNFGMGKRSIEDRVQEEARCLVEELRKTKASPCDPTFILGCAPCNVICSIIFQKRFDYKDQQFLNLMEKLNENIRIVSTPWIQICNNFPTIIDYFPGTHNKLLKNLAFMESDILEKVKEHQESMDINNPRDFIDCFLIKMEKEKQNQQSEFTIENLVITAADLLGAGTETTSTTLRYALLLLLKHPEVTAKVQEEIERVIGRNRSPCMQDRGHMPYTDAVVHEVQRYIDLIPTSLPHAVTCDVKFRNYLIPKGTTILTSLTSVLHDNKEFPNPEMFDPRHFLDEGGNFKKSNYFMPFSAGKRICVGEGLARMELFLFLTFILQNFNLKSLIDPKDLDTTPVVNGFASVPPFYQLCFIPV

[6] = Volume of distribution at steady state in CD(SD) rat at 1 mg/kg, iv; format: ADME, organism-based; conditions: in vivo, read-out: Vdss
[7] = target: T3, Retinoid X receptor (Homo sapiens, UniProt P28702+P48443+P19793); assay: Inhibition of GAL4-fused human RXR transcriptional activity expressed in CHOK1 cells after 2 days by luciferase reporter gene assay; format: cell-based
T3 sequence (P28702 whole entry): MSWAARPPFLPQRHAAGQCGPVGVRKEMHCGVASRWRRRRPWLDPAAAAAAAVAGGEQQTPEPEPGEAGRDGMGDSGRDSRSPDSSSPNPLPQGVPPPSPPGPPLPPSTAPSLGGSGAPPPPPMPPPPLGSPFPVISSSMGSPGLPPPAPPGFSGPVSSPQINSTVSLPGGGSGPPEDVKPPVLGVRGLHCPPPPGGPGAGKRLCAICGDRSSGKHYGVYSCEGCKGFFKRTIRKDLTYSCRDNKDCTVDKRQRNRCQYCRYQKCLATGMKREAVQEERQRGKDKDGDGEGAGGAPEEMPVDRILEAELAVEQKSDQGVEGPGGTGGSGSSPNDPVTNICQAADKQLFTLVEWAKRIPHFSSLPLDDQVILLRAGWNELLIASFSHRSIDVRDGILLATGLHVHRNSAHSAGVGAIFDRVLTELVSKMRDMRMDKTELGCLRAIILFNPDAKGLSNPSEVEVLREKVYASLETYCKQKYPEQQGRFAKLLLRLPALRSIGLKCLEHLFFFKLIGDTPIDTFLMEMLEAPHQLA
T3 sequence (P48443 whole entry): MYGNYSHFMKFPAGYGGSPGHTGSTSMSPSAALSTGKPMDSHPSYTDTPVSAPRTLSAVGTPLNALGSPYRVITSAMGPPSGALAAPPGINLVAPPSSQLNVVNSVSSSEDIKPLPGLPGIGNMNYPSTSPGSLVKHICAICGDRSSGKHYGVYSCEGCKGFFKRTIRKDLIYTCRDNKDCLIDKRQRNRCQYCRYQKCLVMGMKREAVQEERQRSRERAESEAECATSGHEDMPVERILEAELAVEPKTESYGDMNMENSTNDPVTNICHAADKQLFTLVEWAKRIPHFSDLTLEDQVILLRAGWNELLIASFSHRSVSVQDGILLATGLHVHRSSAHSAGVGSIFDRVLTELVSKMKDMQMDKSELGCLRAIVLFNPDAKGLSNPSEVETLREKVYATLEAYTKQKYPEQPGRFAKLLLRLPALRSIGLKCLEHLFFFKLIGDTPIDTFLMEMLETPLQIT
T3 sequence (P19793 whole entry): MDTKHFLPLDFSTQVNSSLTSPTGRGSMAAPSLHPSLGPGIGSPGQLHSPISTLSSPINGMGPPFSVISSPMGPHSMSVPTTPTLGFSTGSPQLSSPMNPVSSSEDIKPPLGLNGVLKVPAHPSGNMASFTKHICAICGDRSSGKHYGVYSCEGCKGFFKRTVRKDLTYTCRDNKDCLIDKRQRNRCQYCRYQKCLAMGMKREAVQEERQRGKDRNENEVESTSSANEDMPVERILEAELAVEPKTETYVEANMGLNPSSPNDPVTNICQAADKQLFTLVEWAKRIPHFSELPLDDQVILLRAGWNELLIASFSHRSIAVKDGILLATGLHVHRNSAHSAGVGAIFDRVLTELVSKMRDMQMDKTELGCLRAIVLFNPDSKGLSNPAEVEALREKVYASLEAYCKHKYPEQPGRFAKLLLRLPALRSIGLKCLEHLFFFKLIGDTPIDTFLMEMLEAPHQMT

With `CC(C)(C)Cc1cc(-c2onc([C@@H](CCC(=O)[O-])CC(=O)Nc3ccc(Cl)cc3Cl)c2C2CC2)no1.[Na+]` as the compound, how does the EC50 [1] read?
Its EC50 is greater than 20 µM.

What about the logD [2] of the same compound?
The logD was 4.2.

And the EC50 [3]?
The EC50 was greater than 20 µM.

What about the half-life [4] of the same compound?
Its half-life is 4.2 h.

And the IC50 [5]?
The IC50 was greater than 50 µM.

And the Vd [6]?
Its Vd is 0.76 L/kg.

What about the EC50 [7] of the same compound?
The EC50 was greater than 20 µM.
